In publication PMC4535766, “Antiprotozoal Activity Profiling of Approved Drugs: A Starting Point toward Drug Repositioning” (PLoS ONE, 2015):

Key:
T. brucei = tested on: T. brucei; design: method as in PMID 11302796; settings: cited from earlier work
[1] = tested on: T. cruzi, strain Tulahuen C4, intracellular amastigotes; assay: microbe, parasite or virus in culture; settings: read-out: IC50 T. cruzi; strain Tulahuen C4, intracellular amastigotes; means of two independent assays
Protocol: (§1) Drug stock solutions (10mg/ml) were in DMSO (100%). […] Selectivity index (SI) was calculated as IC50 L6 cells/IC50 parasite.

L6 cells = assay: Cytotoxicity on L6 cells; settings: read-out: IC50 Cytotox. L6; L6 cells; means of two independent assays
Protocol: as §1

[2] = tested on: macrophages infected with L. donovani; assay: Cytotoxicity on macrophages infected with L. donovani; format: cell-based, mouse; settings: macrophages infected with L. donovani; read-out: IC50 Cytotox. mac.inf.
[3] = tested on: intracellular amastigotes of L. donovani strain MHOM-ET-67/L82; assay: Activity against Leishmania donovani intracellular amastigotes in mouse peritoneal macrophages
How it was run: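 Axenic amastigotes grown at pH 5.4 infected mouse peritoneal macrophages for 4 h before free parasites were washed off. Next day, seven 3-fold drug dilutions (30–0.04 μg/ml) were added for 96 h. Giemsa-stained infected macrophages were counted, burden reduction was taken vs untreated controls, and IC50 came from linear regression.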

P. falciparum strain K1 = assay: In vitro activity against P. falciparum, serial drug dilution assay; settings: read-out: IC50 P. falc. K1; strain K1; means of two independent assays
Protocol: as §1

Entamoeba histolytica = settings: cited from earlier work
[4] = tested on: T.b.rhodesiense (STIB900); assay: T.b.rhodesiense (STIB900) acute mouse model; format: in vivo; settings: daily oral administration of up to 25 mg/kg over a 4 day period, acutely infected mouse model
Protocol: The STIB900 acute mouse model mimics the first stage of the disease. Four female NMRI mice were used per experimental group. Each mouse was inoculated i.p. with 10^4 bloodstream forms of STIB900, respectively. Heparinized blood from a donor mouse with approximately 5x10^6 /ml parasitaemia was suspended in PSG to obtain a trypanosome suspension of […]. Each mouse was injected with 0.25 ml. Compounds were formulated in 100% DMSO, diluted 10-fold in distilled water. Compound treatment was initiated 3 days post-infection on four consecutive days for all administration routes (i.p., p.o.) in a volume of 0.1 ml/10 g. Three mice served as infected-untreated controls. […] Parasitaemia was monitored using smears of tail-snip blood twice a week after treatment for two weeks followed by once a week until 60 days post-infection. Mice are considered cured when there is no parasitaemia relapse detected in the tail blood over the 60-day observation period. Mean relapse days were determined as day of relapse post-infection of mice.

[5] = tested on: axenic amastigotes of L. donovani, strain MHOM-ET-67/L82; assay: In vitro activity against L. donovani axenic amastigotes, serial drug dilution assay; format: cell-based, Leishmania donovani; settings: axenic amastigotes, strain MHOM-ET-67/L82; means of two independent assays; read-out: IC50 L. don. axen.
Protocol: as §1

[6] = tested on: T. b. rhodesiense strain STIB 900, trypomastigotes; assay: in vitro
Protocol: as §1

[7] = design: method as in PMID 6813497; settings: cited from earlier work
[8] = rats, oral single dose 6.7 mg /kg

Row | SMILES | Times more effective than rimantadine (T. brucei) [times] | IC50 [1] [nM] | IC50 (L6 cells) [nM] | IC50 [2] [nM] | Activity against intracellular amastigotes at a fixed concentration [3] | IC50 ([3]; read-out: IC50 L. don. intracell, intracellular amastigotes in mouse peritoneal macrophages, strain MHOM-ET-67/L82, 96 h) [nM] | IC50 (P. falciparum strain K1) [nM] | Times better activity against Entamoeba histolytica than the standard drug metronidazole (Entamoeba histolytica) [times] | In vivo efficacy (reduction of parasitemia or increased survival time) [4] | IC50 [5] [nM] | Selectivity index: IC50 Cytotoxicity L6/ IC50 T. b. rhodesiense [6] | IC50 ([6]; read-out: IC50 T. b. rhod., strain STIB 900, trypomastigotes, means of two independent assays) [nM] | Bioavailability [7] | Terminal half-life based on blood levels [7, 8] [h] | Terminal half-life based on serum levels [7, 8] [h]
1 | NC1CCC(C23CC4CC(CC(C4)C2)C3)CC1 (stereo not drawn) [1-adamantyl-4-amino-cyclohexane] | 20 to 25 | – | – | – | – | – | – | – | – | – | – | – | – | – | –
2 | CC(=O)OC[C@H]1O[C@@H]([S-])[C@H](OC(C)=O)[C@@H](OC(C)=O)[C@@H]1OC(C)=O.CCP(CC)CC.[Au+] [Auranofin] | – | 2270 | 4790 | 4420 | did not exhibit activity | > 1470 | 1670 | 10 | no in vivo efficacy was observed | 110 | 479 | 10 | 17–23% | 29 | 43
